Measured values: PubChem BioAssay AID248 (DTP/NCI, 2004)
Values joined by “and” are separate entries in the source; they are usually repeats but may differ in a detail not shown here. Equal entries are not always repeated. Toxic doses and inconclusive results are not listed. Rule as the data show it: active = T/C of 150% or more; inactive = T/C below 125%.

System: L1210 leukemia ip in BDF1 mice, survival T/C
Assay: NCI In Vivo Anticancer Drug Screen. Data for tumor model L1210 Leukemia (intraperitoneal) in B6D2F1 (BDF1) mice
Conditions: endpoint: mean survival time, higher = longer survival
In short: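 Transplanted-tumor mice were given test agent; controls received vehicle only. Survival readings from the two groups were divided (treated over control).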

[1] = dose: 100.0 mg/kg/injection, schedule: Q01DX001 (ip), vehicle: carboxymethylcellulose (CMC)
[2] = dose: 200.0 mg/kg/injection, schedule: Q01DX001 (ip), vehicle: carboxymethylcellulose (CMC)
[3] = dose: 400.0 mg/kg/injection, schedule: Q01DX001 (ip), vehicle: carboxymethylcellulose (CMC)
[4] = dose: 100.0 mg/kg/injection, schedule: Q01DX001 (ip), vehicle: saline with Tween-80
[5] = dose: 100.0 mg/kg/injection, schedule: Q01DX009 (ip), vehicle: saline with Tween-80
[6] = dose: 100.0 mg/kg/injection, schedule: Q04DX002 (ip), vehicle: saline with Tween-80
[7] = dose: 100.0 mg/kg/injection, schedule: Q04DX003 (ip), vehicle: saline with Tween-80
[8] = dose: 200.0 mg/kg/injection, schedule: Q01DX009 (ip), vehicle: saline with Tween-80
[9] = dose: 200.0 mg/kg/injection, schedule: Q04DX002 (ip), vehicle: saline with Tween-80
[10] = dose: 200.0 mg/kg/injection, schedule: Q04DX003 (ip), vehicle: saline with Tween-80
[11] = dose: 400.0 mg/kg/injection, schedule: Q01DX001 (ip), vehicle: saline with Tween-80
[12] = dose: 400.0 mg/kg/injection, schedule: Q04DX002 (ip), vehicle: saline with Tween-80
[13] = dose: 100.0 mg/kg/injection, schedule: Q01DX009 (ip), vehicle: Klucel (hydroxypropylcellulose) (HPC)
[14] = dose: 200.0 mg/kg/injection, schedule: Q01DX009 (ip), vehicle: Klucel (hydroxypropylcellulose) (HPC)
[15] = dose: 400.0 mg/kg/injection, schedule: Q01DX009 (ip), vehicle: Klucel (hydroxypropylcellulose) (HPC)

Measured: T/C

N#CC(c1ccccc1)c1cccc(C(=O)O)c1 (stereo not given)
inactive: [1] 105 % of control | [2] 86 % of control | [3] 91 % of control

CC(C)=CC1C(C(=O)OC2CCN(C)CC2)C1(C)C (stereo not given)
inactive: dose: 25.0 mg/kg/injection, schedule: Q01DX001 (ip), vehicle: saline 98 % of control | dose: 50.0 mg/kg/injection, schedule: Q01DX001 (ip), vehicle: saline 98 % of control | dose: 100.0 mg/kg/injection, schedule: Q01DX001 (ip), vehicle: saline 101 % of control and 107 % of control

COc1ccccc1NC(=O)N(O)C1(C#N)CCCCC1
inactive: [1] 94 % of control | [2] 93 % of control | [3] 96 % of control

CSc1ccc(NC(=O)Oc2cc3ccccc3cc2C(=O)Nc2ccccc2)cc1
inactive: dose: 50.0 mg/kg/injection, schedule: Q01DX009 (ip), vehicle: saline with Tween-80 97 % of control and 99 % of control | [4] 95 % of control | [5] 96 % of control and 86 % of control | [6] 100 % of control and 92 % of control | [7] 87 % of control | dose: 200.0 mg/kg/injection, schedule: Q01DX001 (ip), vehicle: saline with Tween-80 87 % of control | [8] 96 % of control and 90 % of control | [9] 98 % of control and 91 % of control | [10] 94 % of control | [11] 88 % of control | [12] 95 % of control | dose: 400.0 mg/kg/injection, schedule: Q04DX003 (ip), vehicle: saline with Tween-80 91 % of control

CCN(C(=O)NC(C)(C)C)c1cccc(C)c1
inactive: dose: 12.5 mg/kg/injection, schedule: Q01DX009 (ip), vehicle: saline with Tween-80 108 % of control | dose: 25.0 mg/kg/injection, schedule: Q01DX009 (ip), vehicle: saline with Tween-80 105 % of control and 106 % of control | [4] 122 % of control | [6] 101 % of control and 86 % of control | [7] 102 % of control | [9] 94 % of control and 97 % of control | [10] 105 % of control | [11] 103 % of control | [12] 101 % of control

NC(=S)NNC(=S)S
inactive: [13] 98 % of control | [14] 98 % of control | [15] 109 % of control

O=C(CBr)Nc1ccc(S(=O)(=O)F)cc1
inactive: dose: 2.34 mg/kg/injection, schedule: Q01DX009 (ip), vehicle: carboxymethylcellulose (CMC) 94 % of control | dose: 4.68 mg/kg/injection, schedule: Q01DX009 (ip), vehicle: carboxymethylcellulose (CMC) 86 % of control | dose: 9.37 mg/kg/injection, schedule: Q01DX009 (ip), vehicle: carboxymethylcellulose (CMC) 86 % of control | dose: 18.75 mg/kg/injection, schedule: Q04DX003 (ip), vehicle: carboxymethylcellulose (CMC) 101 % of control | dose: 75.0 mg/kg/injection, schedule: Q01DX001 (ip), vehicle: carboxymethylcellulose (CMC) 94 % of control

Cc1cc2nc3c(nc2cc1C)-c1ccccc1C3=O
inactive: [5] 117 % of control | [8] 101 % of control | dose: 400.0 mg/kg/injection, schedule: Q01DX009 (ip), vehicle: saline with Tween-80 97 % of control

CC(C)c1cc[n+](/C(C(=S)Nc2ccccc2Cl)=C(/[O-])c2ccc([N+](=O)[O-])cc2)cc1
inactive: [13] 94 % of control | [14] 97 % of control | [15] 96 % of control

Nc1ccc(SC(Sc2ccc(N)cc2)c2ccccc2)cc1
inactive: dose: 75.0 mg/kg/injection, schedule: Q01DX001 (ip), vehicle: other 105 % of control | dose: 75.0 mg/kg/injection, schedule: Q04DX003 (ip), vehicle: other 101 % of control | dose: 150.0 mg/kg/injection, schedule: Q01DX001 (ip), vehicle: other 107 % of control | dose: 150.0 mg/kg/injection, schedule: Q04DX003 (ip), vehicle: other 89 % of control | dose: 300.0 mg/kg/injection, schedule: Q01DX001 (ip), vehicle: other 100 % of control | dose: 300.0 mg/kg/injection, schedule: Q04DX003 (ip), vehicle: other 92 % of control
